Literature values in patent publication US12649952B2, “NTRK fusion molecules and uses thereof” (Foundation Medicine, Inc., priority 2019, dated 2026).
Read-outs that look alike come from different tables or passages of the source.

Legend:
[1] = test system: lung adenocarcinoma cell line
Ntrk1/Hsp90 [2] = conditions: results in degradation and depletion of Ntrk1
myeloid leukemia cells [3] = test system: myeloid leukemia cells
Ntrk1/Hsp90 [4] = test system: Ntrk1/Hsp90
myeloid leukemia cells [5] = test system: myeloid leukemia cells; remark: listed apart in the source
NGF dimer = NGF dimer (Homo sapiens, UniProt P01138); conditions: read-out: KD for binding the NGF dimer
preclinical models = conditions: variety of preclinical models
[6] = test system: solid tumors with NTRK fusions; conditions: monotherapy; adult and pediatric patients, with and without CNS metastases
[7] = test system: NTRK fusion-positive AML cell lines
TrkA = TrkA (Homo sapiens, UniProt P04629); conditions: for inhibition of Ntrk1 / NTRK1: result in words
solid tumors [8] = conditions: Phase 1, 56 solid tumor patients
NTRK gene fusions = conditions: after further follow-up, expanded patient population (n=159)
[9] = test system: NTRK1 fusion-positive tumors; conditions: human, in vivo
[10] = test system: preclinical tumor models including a xenograft model of lung cancer; conditions: in vivo
tumor xenograft models = conditions: variety of preclinical tumor xenograft models
[11] = test system: lung adenocarcinoma with KRAS mutation; conditions: mouse, in vivo
solid tumors [12] = conditions: Phase 1, solid tumors
neuroblastoma xenograft = conditions: in vivo
neuroblastoma = conditions: human, in vivo
[13] = test system: NTRK fusion-positive cancers

Chain of TrkA (P04629 33-796): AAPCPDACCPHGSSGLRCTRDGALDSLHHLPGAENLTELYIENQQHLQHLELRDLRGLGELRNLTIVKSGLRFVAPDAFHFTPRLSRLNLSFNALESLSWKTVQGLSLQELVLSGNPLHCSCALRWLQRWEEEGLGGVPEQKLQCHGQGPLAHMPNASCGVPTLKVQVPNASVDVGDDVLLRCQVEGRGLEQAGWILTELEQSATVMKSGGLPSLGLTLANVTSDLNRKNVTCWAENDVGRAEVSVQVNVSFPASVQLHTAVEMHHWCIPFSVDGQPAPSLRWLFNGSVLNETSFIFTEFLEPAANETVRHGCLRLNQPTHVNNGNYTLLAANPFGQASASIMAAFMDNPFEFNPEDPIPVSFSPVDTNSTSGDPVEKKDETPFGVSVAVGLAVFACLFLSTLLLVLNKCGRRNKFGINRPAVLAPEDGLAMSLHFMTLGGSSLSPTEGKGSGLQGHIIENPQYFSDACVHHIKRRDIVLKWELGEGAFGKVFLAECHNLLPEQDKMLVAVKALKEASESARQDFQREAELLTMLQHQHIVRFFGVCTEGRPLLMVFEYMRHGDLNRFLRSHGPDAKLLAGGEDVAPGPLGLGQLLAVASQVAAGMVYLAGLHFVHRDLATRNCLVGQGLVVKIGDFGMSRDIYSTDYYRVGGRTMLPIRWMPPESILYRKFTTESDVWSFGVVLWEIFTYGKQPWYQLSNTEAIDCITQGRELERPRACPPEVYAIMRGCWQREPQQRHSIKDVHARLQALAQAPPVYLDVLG
Chain of NGF dimer (P01138 122-241): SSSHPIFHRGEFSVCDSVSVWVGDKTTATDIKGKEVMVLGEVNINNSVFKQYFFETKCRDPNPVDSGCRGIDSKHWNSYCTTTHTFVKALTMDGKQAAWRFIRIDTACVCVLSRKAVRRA

What does the source list for `COC(=O)[C@@]1(O)C[C@H]2O[C@]1(C)n1c3ccccc3c3c4c(c5c6ccccc6n2c5c31)C(=O)NC4` [K252a, (9S-(9a, 108,12a))-2,3,9,10,11,12-hexahydro-10-hydroxy-10-(methoxycarbonyl)-9-methyl-9,12-epoxy-1H-diindolo [1,2,3-fg: 3′,2′,1′-kl] pyrrolo [3,4-i][1,6] benzodiazocin-1-one]?
activation of the anti-apoptotic protein Akt [1]: block activation; cell death [1]: promote cell death; tumor cell growth [1]: reduce tumor cell growth

Which results are given for `CO[C@H]1/C=C\C=C(/C)C(=O)NC2=CC(=O)C(NCCN(C)C)=C(C[C@@H](C)C[C@H](OC)[C@H](O)[C@@H](C)/C=C(\C)[C@@H]1OC(N)=O)C2=O` [17-DMAG]?
Ntrk1/Hsp90 binding (Ntrk1/Hsp90 [2]): disrupted Ntrk1/Hsp90 binding; growth of myeloid leukemia cells (myeloid leukemia cells [3]): reduced the growth of myeloid leukemia cells; Ntrk1/Hsp90 binding (Ntrk1/Hsp90 [4]): disrupted Ntrk1/Hsp90 binding; Ntrk1 level (Ntrk1/Hsp90 [4]; consequence of disrupted Ntrk1/Hsp90 binding): degradation and depletion of Ntrk1; growth of myeloid leukemia cells (myeloid leukemia cells [5]): reduced the growth of myeloid leukemia cells

For `Cc1cc2nc3c(=O)[nH]c(=O)nc-3n(C)c2cc1C=O` [Ro 08-2750], which Kd (NGF dimer) is on record?
Its Kd is about 1000 nM.

Which anti-tumor activity (preclinical models) does the source give for `CO[C@]1(COC(=O)CCNC(=O)[C@@H](N)CCCCN)C[C@H]2O[C@]1(C)n1c3ccccc3c3c4c(c5c6ccccc6n2c5c31)C(=O)NC4` [CEP-2563] here?
The anti-tumor activity was “anti-tumor activity”.

For `CN1CCN(c2ccc(C(=O)Nc3n[nH]c4ccc(Cc5cc(F)cc(F)c5)cc34)c(NC3CCOCC3)c2)CC1` [entrectinib, N-[5-(3,5-Difluorobenzyl)-1H-indazol-3-yl]-4-(4-methyl-1-piperazinyl)-2-(tetrahydro-2H-pyran-4-ylamino)benzamide], which clinical benefit [6] is on record?
Its clinical benefit is “Clinical benefit”.

What about the “sensitivity of cell lines” value [7] of the same molecule?
Its value is “preclinical sensitivity”.

Which “inhibition of Ntrk1 / NTRK1” value (TrkA) does the source give for `CO[C@@H](C(=O)N1Cc2n[nH]c(NC(=O)c3ccc(N4CCN(C)CC4)cc3)c2C1)c1ccccc1` [danusertib] here?
The value was “inhibit Ntrk1”.

And the objective response (solid tumors [8])?
Its objective response is “objective response in one non-small cell lung cancer patient”.

What about the tumor regression (solid tumors [8]) of the same molecule?
Its tumor regression is “tumor regression in an ovarian cancer patient”.

For `O=C(Nc1cnn2ccc(N3CCC[C@@H]3c3cc(F)ccc3F)nc12)N1CC[C@H](O)C1` [Larotrectinib, larotrectinib], which “median duration of response” value (NTRK gene fusions) is on record?
The value was 35.2 (22.7—not evaluable [NE]) months.

What about the overall response rate (NTRK gene fusions) of the same molecule?
Its overall response rate is 79%.

And the “overall response rate (ORR)” value (NTRK fusion cancers; NTRK fusion cancers, current clinical trials)?
Its value is 75%.

What about the “responses ongoing, share of patients” value (NTRK fusion cancers; at 12 months of treatment) of the same molecule?
The value was 75-81%.

And the “CR observed, share of patients” value (NTRK fusion cancers; combined Phase 1, Phase 1/2 and Phase 2 data)?
Its value is 17%.

And the ORR (NTRK fusion cancers; combined Phase 1, Phase 1/2 and Phase 2 data, adult and pediatric patients, various solid tumors harboring NTRK fusions (88/109))?
The ORR was 81%.

What about the intracranial efficacy (NTRK fusion cancers; individuals with NTRK fusion-positive gliomas or brain metastases) of the same molecule?
The intracranial efficacy was “demonstrated”.

For `C[C@@H](Oc1cc(-c2cnn(C3CCNCC3)c2)cnc1N)c1c(Cl)ccc(F)c1Cl` [crizotinib], which clinical responses [9] is on record?
The clinical responses was “Durable clinical responses”.

Which results are given for `Nc1ncc(-c2cnn(C3CCNCC3)c2)cc1-c1nc2ccccc2o1` [KRC-108]?
inhibition of Ntrk1 / NTRK1 (TrkA): inhibit NTRK1; antiproliferative activity [10]: antiproliferative activity

What does the source list for `CNC(=O)c1nn(C)c2c1C(C)(C)Cc1cnc(Nc3ccc(N4CCN(C)CC4)cc3)nc1-2` [PHA-848125]?
anti-tumor effect (tumor xenograft models): anti-tumor effect; tumor growth [11]: inhibit tumor growth; partial response (solid tumors [12]): 2/14; stable disease (solid tumors [12]): 9/28

Which IC50 (TrkA) does the source give for `NC(=O)Nc1snc(S[C@@H]2CCCCc3ccccc32)c1C(N)=O` [isothiazole 5n] here?
The IC50 was under 1 nM.

Which tumor growth (neuroblastoma xenograft) does the source give for `CC(C)Oc1cc(Nc2nc(N[C@@H](C)c3ccc(F)cn3)ncc2Cl)n[nH]1` [AZ-23, 5-chloro-N-[(1S)-1-(5-fluoropyridin-2-yl)ethyl]-N′-(5-propan-2-yloxy-1H-pyrazol-3-yl)pyrimidine-2,4-diamine] here?
The tumor growth was “inhibit tumor growth”.

Which tumor growth (neuroblastoma xenograft) does the source give for `C[C@]12O[C@H](C[C@]1(O)CO)n1c3ccccc3c3c4c(c5c6ccccc6n2c5c31)CNC4=O` [lestaurtinib, (5S,6S,8R)-6-hydroxy-6-(hydroxymethyl)-5-methyl-7,8,14,15-tetrahydro-5H-16-oxa-4b,8a,14-triaza-5,8-methanodibenzo[b,h]cycloocta[jkl]cyclopenta[e]-as-indacen-13(6H)-one] here?
Its tumor growth is “inhibit tumor growth”.

And the “efficacy in clinical trials” value (neuroblastoma)?
The value was “effective”.

What does the source list for `C[C@@H]1CCc2ncc(F)cc2[C@H]2CCCN2c2ccn3ncc(c3n2)C(=O)N1` [LOXO-195]?
confirmed complete or partial response ([13]; 10 of 29 evaluable patients, RECIST 1.1, NTRK fusions resistant to other TRK-targeted therapeutics): 34%; safety and tolerability ([13]; solid tumor cancer patients with NTRK fusions resistant to other TRK-targeted therapeutics): safe, tolerable
